# Assay results published in patent publication US12144874B2, “Synthesis and composition of photodynamic therapeutic agents for the targeted treatment of cancer” (On Target Laboratories, LLC, priority 2015, dated 2024).
# “Also recorded” adds a separate entry of the source. Where two headings read alike, the source gives them in different places.
# What was measured:
# subcutaneous KB tumor = assay: In vivo PDT efficacy on growth of subcutaneous KB tumor xenograft in nude mice; conditions: 50 nmol dose, laser 75 mW/cm^2, 137 J/cm^2, 38 min, 3 h after injection
# Procedure: The growth of the tumor was monitored (images were taken) and tumor volume was measured using caliper.
# In the following examples, the in vivo efficacy of the compounds is determined using KB tumor cell xenograft in nude mice. In these studies, KB cells were implanted subcutaneously and growth of the tumors was monitored. […] Moreover, once tumors grow to […], the compounds were injected via tail vein. […] In vivo efficacy of BPheid-a was evaluated by monitoring reduction of tumor volume.
# KB cells that overexpressed folate receptor were implanted subcutaneously into female nude mice and allowed to grow to ˜50 mm^3 prior to initiation of treatment with 50 nmol of BPheid-a (1). […] In vivo efficacy of BPheid-a was evaluated by monitoring reduction of tumor volume.
# KB cells = conditions: for IC50: Table 3, nucleus-targeted modified PDT agents
# [1] = Table 8, folate-targeted releasable visudyne conjugates
# [2] = free drugs in DMSO, 2 h incubation, laser 32 min, then 24 h
# [3] = Table 2, mitochondrial-targeted modified PDT agents, free drugs in DMSO, 2 h incubation, laser 32 min, then 24 h
smiles,measurement,setting,value
"CC[C@H]1c2cc3[nH]c4c(c3C)C(=O)C(C(=O)OC)c4c3nc(cc4[nH]c(cc(n2)[C@@H]1C)c(C(C)=O)c4C)[C@@H](C)[C@@H]3CCC(=O)NNC(=O)OCCSSC[C@H](NC(=O)CCOCCOCCOCCOCCOCCOCCNC(=O)CC[C@H](NC(=O)c1ccc(NCc2cnc3nc(N)[nH]c(=O)c3n2)cc1)C(=O)O)C(=O)O (single isomer, unassigned) [Compound 76b]","Effect on growth of subcutaneous KB tumor, in words",subcutaneous KB tumor,less active in mice as compared to 76a and 76c; also recorded: completely cured with no recurrence during the monitored time (3 weeks)
same,EC50,KB cells; 2 h,320 nM
C=CC1=C(C)c2cc3[nH]c(cc4nc(cc5[nH]c(cc1n2)c(C)c5CCC(=O)NNC(=O)OCCSSC[C@H](NC(=O)[C@H](CCCNC(=N)N)NC(=O)C[C@@H](NC(=O)[C@H](CCCNC(=N)N)NC(=O)CC[C@H](NC(=O)c1ccc(NCc2cnc5nc(N)[nH]c(=O)c5n2)cc1)C(=O)O)C(=O)O)C(=O)O)C(CCC(=O)OC)=C4C)[C@]1(C)C3=CC=C(C(=O)OC)[C@@H]1C(=O)OC [Compound 85],"Activity on KB cancer cells in culture, in words",KB cells,not active
same,EC50,KB cells; [1],Not active*
CC[C@H]1c2cc3[nH]c4c(c3C)C(=O)C(C(=O)OC)c4c3nc(cc4[nH]c(cc(n2)[C@@H]1C)c(C(C)=O)c4C)[C@@H](C)[C@@H]3CCC(=O)NC(Cc1ccc(N(CCCl)CCCl)cc1)C(=O)O (stereo partly drawn) [Compound 41],IC50,KB cells; [2],68 nM
CC[C@H]1c2cc3[nH]c(c(CC(=O)OC)c4nc(cc5[nH]c(cc(n2)[C@@H]1C)c(C(C)=O)c5C)[C@@H](C)[C@@H]4CCC(=O)NNC(=O)OCCSSC[C@H](NC(=O)CCOCCOCCOCCOCCOCCOCCNC(=O)CC[C@H](NC(=O)c1ccc(NCc2cnc4nc(N)[nH]c(=O)c4n2)cc1)C(=O)O)C(=O)O)c(C(=O)N[N+](C)(C)C)c3C [Compound 87b],EC50,KB cells; 2 h,6040 nM
CC[C@H]1c2cc3[nH]c4c(c3C)C(=O)C(C(=O)OC)c4c3nc(cc4[nH]c(cc(n2)[C@@H]1C)c(C(C)=O)c4C)[C@@H](C)[C@@H]3CCC(=O)NCCCC(NC(=O)c1ccc(N(C)Cc2cnc3nc(N)nc(N)c3n2)cc1)C(=O)NNC(=O)OCCSSC[C@H](NC(=O)[C@H](CC(=O)NCCS(=O)(=O)O)NC(=O)CC[C@H](NC(=O)c1ccc(NCc2cnc3nc(N)[nH]c(=O)c3n2)cc1)C(=O)O)C(=O)O (stereo partly drawn) [Compound 117],EC50,KB cells; 2 h,2850 nM
CC[C@H]1c2cc3[nH]c4c(c3C)C(=O)C(C(=O)OC)c4c3nc(cc4[nH]c(cc(n2)[C@@H]1C)c(C(C)=O)c4C)[C@@H](C)[C@@H]3CCC(=O)NCCSSC[C@H](NC(=O)[C@H](CC(=O)NCCS(=O)(=O)O)NC(=O)CC[C@H](NC(=O)c1ccc(NCc2cnc3nc(N)[nH]c(=O)c3n2)cc1)C(=O)O)C(=O)O (stereo partly drawn) [Compound 64],"Effect on growth of subcutaneous KB tumor, in words",subcutaneous KB tumor,completely cure the tumor and showed tumor regression for 2 weeks
CC[C@H]1c2cc3[nH]c4c(c3C)C(=O)C(C(=O)OC)c4c3nc(cc4[nH]c(cc(n2)[C@@H]1C)c(C(C)=O)c4C)[C@@H](C)[C@@H]3CCC(=O)N[C@@H](CC(=O)NCCS(=O)(=O)O)C(=O)O (stereo partly drawn) [Compound 40],IC50,KB cells; [2],4080 nM
C=CC1=C(C)c2cc3[nH]c(cc4nc(cc5[nH]c(cc1n2)c(C)c5CCC(=O)OC)C(CCC(=O)NNC(=O)OCCSSCC(NC(=O)c1ccc(NCc2cnc5nc(N)[nH]c(=O)c5n2)cc1)C(=O)O)=C4C)[C@@]1(C)C3=CC=C(C(=O)OC)[C@H]1C(=O)OC (stereo partly drawn) [Compound 81],"Activity on KB cancer cells in culture, in words",KB cells,not active
same,EC50,KB cells; [1],Not active*
CC[C@H]1c2cc3[nH]c4c(c3C)C(=O)C(C(=O)OC)c4c3nc(cc4[nH]c(cc(n2)[C@@H]1C)c(C(C)=O)c4C)[C@@H](C)[C@@H]3CCC(=O)N[C@@H](CC(=O)N[N+](C)(C)C)C(=O)NNC(=O)OCCSSC[C@H](NC(=O)C[C@H](NC(=O)CC[C@H](NC(=O)c1ccc(NCc2cnc3nc(N)[nH]c(=O)c3n2)cc1)C(=O)O)C(=O)NCCS(=O)(=O)O)C(=O)O (stereo partly drawn) [Compound 95a],EC50,KB cells; 2 h,166 nM
CC[C@H]1c2cc3[nH]c4c(c3C)C(=O)C(C(=O)OC)c4c3nc(cc4[nH]c(cc(n2)[C@@H]1C)c(C(C)=O)c4C)[C@@H](C)[C@@H]3CCC(=O)NCCNC(=O)OCCSSC[C@H](NC(=O)[C@H](CC(=O)NCCS(=O)(=O)O)NC(=O)CC[C@H](NC(=O)c1ccc(NCc2cnc3nc(N)[nH]c(=O)c3n2)cc1)C(=O)O)C(=O)O (stereo partly drawn) [Compound 65c],EC50,KB cells; 2 h,11.6 nM
CC[C@H]1c2cc3[nH]c4c(c3C)C(=O)C(C(=O)OC)c4c3nc(cc4[nH]c(cc(n2)[C@@H]1C)c(C(C)=O)c4C)[C@@H](C)[C@@H]3CCC(=O)NCCCC(C(=O)NCCSSC[C@H](NC(=O)[C@H](CC(=O)NCCS(=O)(=O)O)NC(=O)CC[C@H](NC(=O)c1ccc(NCc2cnc3nc(N)[nH]c(=O)c3n2)cc1)C(=O)O)C(=O)O)[N+](C)(C)C (stereo partly drawn) [Compound 100],"Effect on growth of subcutaneous KB tumor, in words",subcutaneous KB tumor,completely cure the tumor and showed tumor regression for 2 weeks; also recorded: completely cured with no recurrence during the monitored time (2 weeks)
same,EC50,KB cells; 2 h,12.8 nM
"Oc1cccc(-c2c3nc(c(-c4cccc(O)c4)c4ccc([nH]4)c(-c4cccc(O)c4)c4nc(c(-c5cccc(O)c5)c5ccc2[nH]5)CC4)C=C3)c1 [Compound 6, Foscan, reference compound]",EC50,"KB cells; Table 1, non-targeted PDT agents, free drugs in DMSO, 2 h incubation, laser 6 mW/cm^2, 12 J/cm^2, 32 min, then 24 h",Not active
CC[C@H]1c2cc3[nH]c4c(c3C)C(=O)C(C(=O)OC)c4c3nc(cc4[nH]c(cc(n2)[C@@H]1C)c(C(C)=O)c4C)[C@@H](C)[C@@H]3CCC(=O)NCCC[C@H](NC(=O)CC[P+](c1ccccc1)(c1ccccc1)c1ccccc1)C(=O)NCCSSC[C@H](NC(=O)[C@H](CC(=O)NCCS(=O)(=O)O)NC(=O)CC[C@H](NC(=O)c1ccc(NCc2cnc3nc(N)[nH]c(=O)c3n2)cc1)C(=O)O)C(=O)O (stereo partly drawn) [Compound 99],EC50,KB cells; 2 h,5.3 nM
CC[C@H]1C2=Cc3c(C)c(C(=O)NNC(=O)Nc4cccc(S(=O)(=O)O)c4)c4[n]3[Pd][n]3c(c(C)c(C(C)=O)c3=CC(=N2)[C@@H]1C)=CC1=NC(=C4CC(=O)OC)[C@@H](CCC(=O)O)[C@@H]1C [Compound 39],IC50,KB cells; [2],Not active*
CC[C@H]1c2cc3[nH]c4c(c3C)C(=O)C(C(=O)OC)c4c3nc(cc4[nH]c(cc(n2)[C@@H]1C)c(C(C)=O)c4C)[C@@H](C)[C@@H]3CCC(=O)NCCSSC[C@H](NC(=O)[C@H](CC(=O)NCCS(=O)(=O)O)NC(=O)[C@H](CC(=O)NCCS(=O)(=O)O)NC(=O)CC[C@H](NC(=O)c1ccc(NCc2cnc3nc(N)[nH]c(=O)c3n2)cc1)C(=O)O)C(=O)O (stereo partly drawn) [Compound 105],EC50,KB cells; 2 h,45.3 nM
CC[C@H]1c2cc3[nH]c4c(c3C)C(=O)C(C(=O)OC)c4c3nc(cc4[nH]c(cc(n2)[C@@H]1C)c(C(C)=O)c4C)[C@@H](C)[C@@H]3CCC(=O)NCCC[C@@H](C(=O)O)[N+](C)(C)C (stereo partly drawn) [Compound 12b],EC50,KB cells; [3],15.4 nM
CC[C@H]1c2cc3[nH]c4c(c3C)C(=O)C(C(=O)OC)c4c3nc(cc4[nH]c(cc(n2)[C@@H]1C)c(C(C)=O)c4C)[C@@H](C)[C@@H]3CCC(=O)NC(CC(=O)NC1C(O)OC(CO)C(O)C1O)C(=O)NNC(=O)OCCSSC[C@H](NC(=O)[C@H](CC(=O)NCCS(=O)(=O)O)NC(=O)CC[C@H](NC(=O)c1ccc(NCc2cnc3nc(N)[nH]c(=O)c3n2)cc1)C(=O)O)C(=O)O (stereo partly drawn) [Compound 92a],"Effect on growth of subcutaneous KB tumor, in words",subcutaneous KB tumor,completely reduced the tumor
same,Activity class on KB cancer cells in culture (active / highly active),KB cells,active
same,EC50,KB cells; 2 h,32.8 nM
CC[C@H]1c2cc3[nH]c4c(c3C)C(=O)C(C(=O)OC)c4c3nc(cc4[nH]c(cc(n2)[C@@H]1C)c(C(C)=O)c4C)[C@@H](C)[C@@H]3CCC(=O)N[C@@H](CCC(=O)NCCS(=O)(=O)O)C(=O)NCCNC(=O)OCCSSC[C@H](NC(=O)[C@H](CC(=O)NCCS(=O)(=O)O)NC(=O)CC[C@H](NC(=O)c1ccc(NCc2cnc3nc(N)[nH]c(=O)c3n2)cc1)C(=O)O)C(=O)O (stereo partly drawn) [Compound 119],EC50,KB cells; 2 h,538 nM
CC[C@H]1c2cc3[nH]c4c(c3C)C(=O)C(C(=O)OC)c4c3nc(cc4[nH]c(cc(n2)[C@@H]1C)c(C(C)=O)c4C)[C@@H](C)[C@@H]3CCC(=O)NCCC[C@@H](C(=O)OC(C)(C)C)[N+](C)(C)C (stereo partly drawn) [Compound 11b],EC50,KB cells; [3],23.1 nM
CC[C@H]1c2cc3[nH]c4c(c3C)C(=O)C(C(=O)OC)c4c3nc(cc4[nH]c(cc(n2)[C@@H]1C)c(C(C)=O)c4C)[C@@H](C)[C@@H]3CCC(=O)N[C@@H](CCC(=O)NC1C(O)OC(CO)C(O)C1O)C(=O)O (stereo partly drawn) [Compound 19],EC50,KB cells; [3],550 nM
"CC[C@H]1c2cc3[nH]c4c(c3C)C(=O)C(C(=O)OC)c4c3nc(cc4[nH]c(cc(n2)[C@@H]1C)c(C(C)=O)c4C)[C@@H](C)[C@@H]3CCC(=O)NNC(=O)OCCSSC[C@H](NC(=O)CCOCCOCCOCCOCCOCCOCCOCCOCCNC(=O)CC[C@H](NC(=O)c1ccc(NCc2cnc3nc(N)[nH]c(=O)c3n2)cc1)C(=O)O)C(=O)O (single isomer, unassigned) [Compound 76d]",EC50,KB cells; 2 h,339 nM
CC[C@H]1c2cc3[nH]c(c(CC(=O)OC)c4nc(cc5[nH]c(cc(n2)[C@@H]1C)c(C(C)=O)c5C)[C@@H](C)[C@@H]4CCC(=O)NCCSSC[C@H](NC(=O)[C@H](CC(=O)NCCS(=O)(=O)O)NC(=O)CC[C@H](NC(=O)c1ccc(NCc2cnc4nc(N)[nH]c(=O)c4n2)cc1)C(=O)O)C(=O)O)c(C(=O)N[N+](C)(C)C)c3C [Compound 101],EC50,KB cells; 2 h,159 nM
CC[C@H]1c2cc3[nH]c(c(CC(=O)OC)c4nc(cc5[nH]c(cc(n2)[C@@H]1C)c(C(C)=O)c5C)[C@@H](C)[C@@H]4CCC(=O)NNC(=O)OCCSSC[C@H](NC(=O)CCOCCOCCOCCOCCOCCOCCOCCOCCNC(=O)CC[C@H](NC(=O)c1ccc(NCc2cnc4nc(N)[nH]c(=O)c4n2)cc1)C(=O)O)C(=O)O)c(C(=O)NCCOCCOCCO)c3C [Compound 88a],Activity class on KB cancer cells in culture (active / highly active),KB cells,active
same,EC50,KB cells; 2 h,34.5 nM
